{
  "source": "patent US20120264611A1",
  "about": "“Pesticide Preparations Containing Derivatives Of Pyrrolidone-4-Carboxylic Acid” (CLARIANT FINANCE (BVI) LIMITED, priority 2009, published 2012)",
  "key": {"[1]": {"system": "tomato plants (cv. Astona F1)", "test": "Determination of phytotoxicity on tomato plants (auxiliaries sprayed without pesticide)", "type": "in vivo", "description": "The phytotoxicity is determined on tomato plants (cv. Astona F1), a species which, as is known, is sensitive to phytotoxic substances taken up via the leaf surface (“Phototoxicity of different classes of adjuvants”, H. de Ruiter, et al., Proceedings Fifth International Symposium on Adjuvants for Agrochemicals, 1998, Ed. P. McMullan, pp. 204-209).\nTomato plants (cv. Astona F1) are cultivated in a greenhouse under 14-hour light irradiation at a temperature of 18/12 (±0.5)° C. (day/night) and a relative atmospheric humidity of 70/80 (±5) % (day/night). 12 days after germination, the seedlings are transplanted into plastic pots having a diameter of 11 cm (one plant per pot) filled with a mixture of sand and soil (Soil No. 12, Colent b.v., Lent, the Netherlands) in a volume ratio of sand:soil=1:2.\nThe pots are placed on a subirrigation mat which was moistened daily with a nutrient solution of medium strength.\n28 days after sowing, the plants were treated at the 4-leaf stage, each plant having a height of 15-17 cm. The auxiliary content of the spray solution was 0.5% (v/v or % by volume).\nThe spray solutions are applied to the plants using an air pressure-operated laboratory sprayer such that the resulting application rate is 200 l/ha.\nThe treated plants are scored visually after 2 and 8 days (DAT; DAT: days after treatment) and evaluated using a qualitative scale (1 to 5). Here, 1=no discoloration or necrosis of the leaves to 5=complete necrosis of the treated leaf surface. Moreover, the above-ground plant mass is determined after 8 days (fresh weight). In each case, the average is calculated, based on the number of treated plants."}, "[2]": {"system": "Wild oats (Avena fatua, AVEFA)", "test": "Increase of the biological activity of glyphosate by adjuvants, greenhouse trial (tank mix method)", "type": "in vivo", "details": "21 days", "from_the_text": "Here, 50% strength solutions are used. In the case of compound 1, triethanolamine is additionally added to dissolve the acid.\nBy mixing these tank mix solutions with a commercial aqueous solution of glyphosate isopropylammonium (comprising 62% by weight of the active compound glyphosate IPA salt; IPA: isopropylammonium) and further addition of water, a preparation according to the invention is formed. The ratio of glyphosate (based on the acid equivalent) to adjuvant corresponds to that which is also found in commercially available glyphosate formulations.\nFor easier monitoring of the adjuvant effects, reduced doses of glyphosate are used; the application rate is 135.2 g a.e./ha glyphosate IPA salt (corresponding to 4.0 mmol or 0.68 g a.e./l at a liquid volume of 200 l/ha). The abbreviation “a.e.” means “acid equivalent”.\nThe spray solutions comprise the following concentrations of adjuvant: 0.0141% (v/v).\nWild oats (Avena fatua, AVEFA) are cultivated in a greenhouse under 14 hours of light irradiation at a temperature of 18/12 (±0.5)° C. (day/night) and a relative atmospheric humidity of 70/80 (±5) % (day/night). Light is introduced via high-pressure mercury lamps and fluorescent tubes, resulting in a power of 70 W/m^2 (PAR; PAR: photosynthetically active radiation (400-700 nm)) on the leaf level. The plants are cultivated in plastic pots having a diameter of 11 cm, filled with a mixture of sand and soil (Soil No. 12, Colent b.v., Lent, the Netherlands) in a volume ratio of sand:soil=1:2.\nThe pots are placed on a subirrigation mat which is moistened daily with a nutrient solution of medium strength. After emergence, the AVEFA seedlings are divided into six plants per pot for the activity tests.\nThe spray solutions are used to carry out greenhouse trials. The effect of the adjuvants on the efficacy of glyphosate is tested.\nThe spray solutions are applied to the plants using an air pressure-operated laboratory sprayer, such that an application rate of 200 l/ha results.\nWild oats (AVEFA) are treated once they have reached the 2-3 leaf stage.\nThe efficacy of the herbicide is assessed after 21 days. To this end, the mass of the remaining above-ground plant parts (fresh weight (FW) in gram) is determined. This is shown in table 3, together with the calculated relative residual amount, compared to the untreated plant (in % by weight)."}},
  "data": [
    {"smiles": "CCCCCCCC/C=C\\CCCCCCCCN1CC(C(=O)O)CC1=O", "note": "(stereo not drawn) [Compound 1, N-oleyl-2-pyrrolidone-4-carboxylic acid]", "values": [
      {"measurement": "Visual evaluation (DAT 2)", "setting": "[1]; 2 days after treatment, qualitative scale 1 (no discoloration or necrosis of the leaves) to 5 (complete necrosis of treated leaf surface), average, auxiliary 0.5% (v/v), 200 l/ha, no pesticide", "result": 1.1},
      {"measurement": "Visual evaluation (DAT 8)", "setting": "[1]; 8 days after treatment, qualitative scale 1 (no discoloration or necrosis of the leaves) to 5 (complete necrosis of treated leaf surface), average, auxiliary 0.5% (v/v), 200 l/ha, no pesticide", "result": 1.5},
      {"measurement": "Fresh weight", "setting": "[1]; above-ground plant mass after 8 days, average, auxiliary 0.5% (v/v), 200 l/ha, untreated 8.6 g", "result": 8.6, "unit": "g"},
      {"measurement": "Mass of the plants formed compared to the untreated plant (in words)", "setting": "[1]; summary of table 2, after 8 days", "result": "not reduced"},
      {"measurement": "Phytotoxic reaction of the tomato plants (in words)", "setting": "[1]; summary of table 2, auxiliary 0.5% (v/v)", "result": "at most minimal signs of a phytotoxic reaction"}
    ]},
    {"smiles": "O=C(O)CNCP(=O)(O)O", "note": "[Glyphosate, no adjuvant added, glyphosate isopropylammonium]", "values": [
      {"measurement": "Test 1, fresh weight of remaining above-ground plant parts", "setting": "[2]; glyphosate IPA salt 135.2 g a.e./ha, adjuvant 0.0141% (v/v), 200 l/ha, untreated 11.26", "result": 9.63, "unit": "g FW"},
      {"measurement": "Mean of tests 1 and 2", "setting": "[2]; glyphosate IPA salt 135.2 g a.e./ha, adjuvant 0.0141% (v/v), 200 l/ha, untreated 12.97", "result": 11.54, "unit": "g FW"},
      {"measurement": "Test 2, fresh weight of remaining above-ground plant parts", "setting": "[2]; glyphosate IPA salt 135.2 g a.e./ha, adjuvant 0.0141% (v/v), 200 l/ha, untreated 14.67", "result": 13.45, "unit": "g FW"},
      {"measurement": "Residual amount", "setting": "[2]; calculated relative residual amount compared to the untreated plant (100)", "result": 89, "unit": "% by weight"}
    ]}
  ]
}
